# Measurements as given in ChEMBL document CHEMBL5625164, “Design, synthesis, and evaluation of new anti-inflammatory natural products amide derivatives endowed with anti-blood cancer activity towards development of potential multifunctional agents against hematological cancers” (Eur J Med Chem, 2023).
# Legend:
# HL-60 [1] = assay: Anticancer activity against human HL-60 cells assessed as growth inhibition measured after 48 hrs by SRB assay relative to control; format: functional
# HL-60 [2] = assay: Induction of cell cycle arrest in human HL-60 cells assessed as accumulation of cells at G2/M phase at 50 uM measured after 48 hrs by propidium iodide staining based flow cytometry (reference value: 16.61%); format: functional
# HL-60 [3] = assay: Induction of apoptosis in human HL-60 cells assessed as total apoptotic cells measured after 24 hrs by annexin V/propidium iodide staining based FACS assay; format: functional, cell-based; settings: dose 10-50 µM
# HL-60 [4] = assay: Induction of apoptosis in human HL-60 cells assessed as early apoptotic cells measured after 24 hrs by annexin V/propidium iodide staining based FACS assay; format: functional, cell-based; settings: dose 10-50 µM
# HL-60 [5] = assay: Induction of cell cycle arrest in human HL-60 cells assessed as accumulation of cells at S phase at 10 uM measured after 24 hrs by propidium iodide staining based flow cytometry (reference value: 13.85%); format: functional
# BV-2 [6] = assay: Anti-inflammatory activity against mouse BV-2 cells assessed as inhibition of LPS-induced PGE2 production pretreated for 2 hrs followed stimulated with LPS for 22 hrs; format: functional, cell-based
# HL-60 [7] = assay: Induction of cell cycle arrest in human HL-60 cells assessed as accumulation of cells at SubG1 phase at 50 uM measured after 24 hrs by propidium iodide staining based flow cytometry (reference value: 5.89%); format: functional
# BV-2 [8] = assay: Anti-inflammatory activity against mouse BV-2 cells assessed as inhibition of LPS-induced NO production at 10 uM pretreated for 2 hrs followed stimulated with LPS for 22 hrs by Griess reaction assay relative to control; format: functional; settings: time 24 hrs
# HL-60 [9] = assay: Induction of cell cycle arrest in human HL-60 cells assessed as accumulation of cells at G2/M phase at 25 uM measured after 24 hrs by propidium iodide staining based flow cytometry (reference value: 9.01%); format: functional
# HL-60 [10] = assay: Induction of cell cycle arrest in human HL-60 cells assessed as accumulation of cells at S phase at 10 uM measured after 48 hrs by propidium iodide staining based flow cytometry (reference value: 7.16%); format: functional
# SR [11] = assay: Anticancer activity against human SR cells assessed as growth inhibition at 10 uM measured after 48 hrs by SRB assay relative to control; format: functional; settings: read-out: GI
# SR [12] = assay: Anticancer activity against human SR cells assessed as growth inhibition measured after 48 hrs by SRB assay relative to control; format: functional
# HL-60 [13] = assay: Induction of cell cycle arrest in human HL-60 cells assessed as accumulation of cells at S phase at 25 uM measured after 48 hrs by propidium iodide staining based flow cytometry (reference value: 7.16%); format: functional
# HL-60 [14] = assay: Induction of cell cycle arrest in human HL-60 cells assessed as accumulation of cells at G2/M phase at 10 uM measured after 48 hrs by propidium iodide staining based flow cytometry (reference value: 16.61%); format: functional
# RPMI-8226 [15] = assay: Anticancer activity against human RPMI-8226 cells assessed as growth inhibition measured after 48 hrs by SRB assay relative to control; format: functional
# CCRF-CEM [16] = assay: Anticancer activity against human CCRF-CEM cells assessed as growth inhibition at 10 uM measured after 48 hrs by SRB assay relative to control; format: functional; settings: read-out: GI
# HL-60 [17] = assay: Induction of cell cycle arrest in human HL-60 cells assessed as accumulation of cells at G0/G1 phase at 50 uM measured after 48 hrs by propidium iodide staining based flow cytometry (reference value: 60.03%); format: functional
# HL-60 [18] = assay: Induction of cell cycle arrest in human HL-60 cells assessed as accumulation of cells at G2/M phase at 10 uM measured after 24 hrs by propidium iodide staining based flow cytometry (reference value: 9.01%); format: functional
# BV-2 [19] = assay: Anti-inflammatory activity against mouse BV-2 cells assessed as inhibition of LPS-induced NO production pretreated for 2 hrs followed stimulated with LPS for 22 hrs by Griess reaction assay; format: functional, cell-based
# HL-60 [20] = assay: Induction of cell cycle arrest in human HL-60 cells assessed as accumulation of cells at G0/G1 phase at 10 uM measured after 48 hrs by propidium iodide staining based flow cytometry (reference value: 60.03%); format: functional
# MOLT-4 [21] = assay: Anticancer activity against human MOLT-4 cells assessed as growth inhibition measured after 48 hrs by SRB assay relative to control; format: functional
# HL-60 [22] = assay: Induction of cell cycle arrest in human HL-60 cells assessed as accumulation of cells at SubG1 phase at 25 uM measured after 48 hrs by propidium iodide staining based flow cytometry (reference value: 4.25%); format: functional
# HL-60 [23] = assay: Induction of cell cycle arrest in human HL-60 cells assessed as accumulation of cells at SubG1 phase at 25 uM measured after 24 hrs by propidium iodide staining based flow cytometry (reference value: 5.89%); format: functional
# K562 [24] = assay: Anticancer activity against human K562 cells assessed as growth inhibition at 10 uM measured after 48 hrs by SRB assay relative to control; format: functional; settings: read-out: GI
# HL-60 [25] = assay: Induction of cell cycle arrest in human HL-60 cells assessed as accumulation of cells at G2/M phase at 50 uM measured after 24 hrs by propidium iodide staining based flow cytometry (reference value: 9.01%); format: functional
# HL-60 [26] = assay: Induction of cell cycle arrest in human HL-60 cells assessed as accumulation of cells at SubG1 phase at 10 uM measured after 24 hrs by propidium iodide staining based flow cytometry (reference value: 5.89%); format: functional
# HL-60 [27] = assay: Induction of cell cycle arrest in human HL-60 cells assessed as accumulation of cells at S phase at 25 uM measured after 24 hrs by propidium iodide staining based flow cytometry (reference value: 13.85%); format: functional
# BV-2 [28] = assay: Anti-inflammatory activity against mouse BV-2 cells assessed as inhibition of LPS-induced TNFalpha production pretreated for 2 hrs followed stimulated with LPS for 22 hrs at 10 uM relative to control; format: functional; settings: time 24 hrs
# MOLT-4 [29] = assay: Anticancer activity against human MOLT-4 cells assessed as growth inhibition at 10 uM measured after 48 hrs by SRB assay relative to control; format: functional; settings: read-out: GI
# CCRF-CEM [30] = assay: Anticancer activity against human CCRF-CEM cells assessed as growth inhibition measured after 48 hrs by SRB assay relative to control; format: functional
# HL-60 [31] = assay: Induction of cell cycle arrest in human HL-60 cells assessed as accumulation of cells at G0/G1 phase at 25 uM measured after 48 hrs by propidium iodide staining based flow cytometry (reference value: 60.03%); format: functional
# HL-60 [32] = assay: Induction of cell cycle arrest in human HL-60 cells assessed as accumulation of cells at S phase at 50 uM measured after 24 hrs by propidium iodide staining based flow cytometry (reference value: 13.85%); format: functional
# HL-60 [33] = assay: Induction of cell cycle arrest in human HL-60 cells assessed as accumulation of cells at S phase at 50 uM measured after 48 hrs by propidium iodide staining based flow cytometry (reference value: 7.16%); format: functional
# RPMI-8226 [34] = assay: Anticancer activity against human RPMI-8226 cells assessed as growth inhibition at 10 uM measured after 48 hrs by SRB assay relative to control; format: functional; settings: read-out: GI
# HL-60 [35] = assay: Induction of cell cycle arrest in human HL-60 cells assessed as accumulation of cells at G0/G1 phase at 10 uM measured after 24 hrs by propidium iodide staining based flow cytometry (reference value: 66.61%); format: functional
# HL-60 [36] = assay: Induction of cell cycle arrest in human HL-60 cells assessed as accumulation of cells at G0/G1 phase at 50 uM measured after 24 hrs by propidium iodide staining based flow cytometry (reference value: 66.61%); format: functional
# K562 [37] = assay: Anticancer activity against human K562 cells assessed as growth inhibition measured after 48 hrs by SRB assay relative to control; format: functional
# HL-60 [38] = assay: Induction of cell cycle arrest in human HL-60 cells assessed as accumulation of cells at SubG1 phase at 10 uM measured after 48 hrs by propidium iodide staining based flow cytometry (reference value: 4.25%); format: functional
# [39] = Cytotoxicity against mouse RAW264.7 cells assessed as macrophage viability at 10 uM relative to control; format: toxicity, cell-based; settings: read-out: Activity
# HL-60 [40] = assay: Induction of cell cycle arrest in human HL-60 cells assessed as accumulation of cells at SubG1 phase at 50 uM measured after 48 hrs by propidium iodide staining based flow cytometry (reference value: 4.25%); format: functional
# BV-2 [41] = assay: Anti-inflammatory activity against mouse BV-2 cells assessed as inhibition of LPS-induced TNFalpha production pretreated for 2 hrs followed stimulated with LPS for 22 hrs; format: functional, cell-based; settings: time 24.0 hrs
# BV-2 [42] = assay: Anti-inflammatory activity against mouse BV-2 cells assessed as inhibition of LPS-induced PGE2 production pretreated for 2 hrs followed stimulated with LPS for 22 hrs at 10 uM relative to control; format: functional; settings: time 24 hrs
# HL-60 [43] = assay: Induction of cell cycle arrest in human HL-60 cells assessed as accumulation of cells at G2/M phase at 25 uM measured after 48 hrs by propidium iodide staining based flow cytometry (reference value: 16.61%); format: functional
# HL-60 [44] = assay: Induction of cell cycle arrest in human HL-60 cells assessed as accumulation of cells at G0/G1 phase at 25 uM measured after 24 hrs by propidium iodide staining based flow cytometry (reference value: 66.61%); format: functional
compound,measurement,setting,value
COc1cc2c(c(OC)c1OC)C(=O)CC(c1cccc(NC(=O)c3ccc(Br)cc3)c1)O2 (racemic),GI50,HL-60 [1],1640 nM
same,Activity,HL-60 [2],1.61%
same,Activity,HL-60 [3],Dose-Dependent Effect
same,Activity,HL-60 [4],Dose-Dependent Effect
same,Activity,HL-60 [5],19.25%
same,IC50,BV-2 [6],9100 nM
same,Activity,HL-60 [7],70.09%
same,inhibition at 10 µM,BV-2 [8],45.2%
same,Activity,HL-60 [9],2.22%
same,Activity,HL-60 [10],12.39%
same,inhibition of growth at 10 µM,SR [11],96.1%
same,GI50,SR [12],1340 nM
same,Activity,HL-60 [13],1.33%
same,Activity,HL-60 [14],26.61%
same,GI50,RPMI-8226 [15],1580 nM
same,inhibition of growth at 10 µM,CCRF-CEM [16],97.1%
same,Activity,HL-60 [17],3.96%
same,Activity,HL-60 [18],5.69%
same,IC50,BV-2 [19],14700 nM
same,Activity,HL-60 [20],33.83%
same,GI50,MOLT-4 [21],1630 nM
same,Activity,HL-60 [22],74.54%
same,Activity,HL-60 [23],43.13%
same,inhibition of growth at 10 µM,K562 [24],94.1%
same,Activity,HL-60 [25],1.8%
same,Activity,HL-60 [26],6.15%
same,Activity,HL-60 [27],27.79%
same,inhibition at 10 µM,BV-2 [28],50%
same,inhibition of growth at 10 µM,MOLT-4 [29],112%
same,GI50,CCRF-CEM [30],2620 nM
same,Activity,HL-60 [31],5.89%
same,Activity,HL-60 [32],5.77%
same,Activity,HL-60 [33],1.21%
same,inhibition of growth at 10 µM,RPMI-8226 [34],105%
same,Activity,HL-60 [35],51.19%
same,Activity,HL-60 [36],4.82%
same,GI50,K562 [37],1420 nM
same,Activity,HL-60 [38],8.99%
same,viability at 10 µM,[39],106%
same,Activity,HL-60 [40],90.39%
same,Activity,BV-2 [41],Dose-Dependent Effect
same,inhibition at 10 µM,BV-2 [42],61.1%
same,Activity,HL-60 [43],10.01%
same,Activity,HL-60 [44],2.08%
